According to article PMC7397659, “Pseudonajide peptide derived from snake venom alters cell envelope integrity interfering on biofilm formation in Staphylococcus epidermidis” (BMC Microbiology, 2020):
Where no end group is shown, it is not given here.

Key:
MCF7 (breast cancer) = test: Cytotoxicity test, ImPACcell platform; type: cell-based, human; conditions: 25 μM, 24 h
Description: (§1) Cytotoxicity tests were performed on the ImPACcell robotic platform (BIOSIT, Université de Rennes 1). This featured high-throughput multiparameter image analysis, with both high-content screening and high-content analysis. The platform is equipped with an Olympus microscope and Compix SimplePCI software; a Zeiss Axio Imager M1 microscope with a Zeiss camera and AxioVision software; and imaging systems including an ArrayScan VTI Cellomics reader (Thermo Fisher), Hamilton STARlet and NIMBUS workstations, and a Scienion spotter. Cells used in the test were obtained from an already-existing collection available at BIOSIT (https://biosit.univ-rennes1.fr/impaccell-imagerie-pour-analyse-du-contenu-cellulaire). For the tests, seven different cell lines were used: human hepatocellular carcinoma (HuH7); colorectal adenocarcinoma (Caco-2); breast adenocarcinoma (MDA-MB231); colorectal carcinoma (HCT116); prostatic adenocarcinoma (PC3); lung carcinoma (NCL-H727); and breast cancer (MCF7). The residual cell percentages reported correspond to viable cells compared to the average viable cells in the DMSO control. Viability of 100% represents no cytotoxicity or inhibition of cell growth, while under 25–30% is considered cytotoxic and 0% represents acute cytotoxicity.

[1] = system: HuH7 (hepatocellular carcinoma); test: Cytotoxicity test, ImPACcell platform; type: cell-based, human; conditions: 25 μM, 24 h
Description: as §1

[2] = system: HCT116 (colorectal carcinoma); test: Cytotoxicity test, ImPACcell platform; type: cell-based, human; conditions: 25 μM, 24 h
Description: as §1

[3] = system: PC3 (prostatic adenocarcinoma); test: Cytotoxicity test, ImPACcell platform; type: cell-based, human; conditions: 25 μM, 24 h
Description: as §1

[4] = system: NCL-H727 (lung carcinoma); test: Cytotoxicity test, ImPACcell platform; type: cell-based, human; conditions: 25 μM, 24 h
Description: as §1

[5] = system: MDA-MB231 (breast adenocarcinoma); test: Cytotoxicity test, ImPACcell platform; type: cell-based, human; conditions: 25 μM, 24 h
Description: as §1

[6] = system: Caco-2 (colorectal adenocarcinoma); test: Cytotoxicity test, ImPACcell platform; type: cell-based, human; conditions: 25 μM, 24 h
Description: as §1

[7] = system: S. epidermidis ATCC 35984; test: Antibiofilm formation test, crystal violet protocol; type: cell-based, Staphylococcus epidermidis; conditions: 100 μM peptide, 24 h exposure, crystal violet OD570, at least 3 biological replicates
Description: S. epidermidis ATCC 35984 and Pseudomonas aeruginosa PAO1 were used to test the antimicrobial and antibiofilm activities of the peptides. Both bacteria were grown in blood agar plates and cultured overnight at 37 °C. Cell suspensions were prepared in a solution of 0.9% NaCl and adjusted to OD600 for a final concentration of ~ 10^8 cells/ml. For microscopy analysis, pre-inoculum was made in tryptic soy broth (TSB, Merck), and adjusted to OD600 for the same concentration of cells for all tests.
Serial dilution of peptides was performed in 96-well plates, going from 100 to 3.12 μM. Cell suspensions and TSB were added to the plates and a control was made with dimethyl sulfoxide (DMSO). Antibiofilm formation tests were performed with an adapted protocol, in which it is described that 24 h of incubation is sufficient to determinate antibiofilm activity. The OD600 was measured, then biofilm content accessed using the crystal violet protocol. Biofilm eradication test was performed supplementing 24 h pre-formed biofilm with a new culture broth, containing or not 25 μM of peptide. The plates were incubated for further 24 h followed by crystal violet protocol. The antimicrobial activity of pseudonajide was analyzed using a concentration of 25 μM after 1, 2, 4, and 24 h incubation. After measuring the optical density, the supernatant was collected and diluted. […] CFUs were counted after 24 h incubation. […]

| Sequence | live cell counts compared to control (MCF7 (breast cancer)) | live cell counts compared to control [1] | live cell counts compared to control [2] | live cell counts compared to control [3] | live cell counts compared to control [4] | live cell counts compared to control [5] | live cell counts compared to control [6] | reduction of biofilm mass [7] [%] |
| --- | --- | --- | --- | --- | --- | --- | --- | --- |
| KRFKKFFMKLK [Peptide 2] | no decrease in live cell counts | no decrease in live cell counts | no decrease in live cell counts | no decrease in live cell counts | no decrease in live cell counts | no decrease in live cell counts | no decrease in live cell counts |  |
| KRFKKFFKKLK [Peptide 3] |  |  |  |  |  |  |  | 78 |
| KRFKKFFKKVK [Peptide 1] |  |  |  |  |  |  |  | 77 |
